Residues, ends and D or L forms follow the SMILES beside them. No end group written: not given here.
System: TG level in blood
Assay: Serum TG elevation inhibiting action at the time of in vivo lipid loading (olive oil)
Set-up: species or system albino mice
Settings: for Ratio of Increase in Blood TG Levels (%): blood collected after 3 hours; for ID^50: Dose (mg/mouse) exhibiting 50% inhibition: oral, with 250 mg olive oil, blood TG after 3 hours; for Specific Activity: relative to the proteolysate (= 1)
Protocol: Serum TG elevation inhibiting action at the time of in vivo lipid loading was examined on the three peptides of the invention inhibiting elevations of TG levels in blood (i.e., the peptide having the amino acid sequence of SEQ ID NO: 1 and the peptides Val-Thr-Leu and Val-Tyr-Pro synthesized by the method described in Example 4). Healthy albino mice (5-10 weeks old; body weight: about 20-30 g) were used in this experiment. To each mouse, 250 mg of olive oil and an aqueous solution of the above peptide were administered orally. Three hours thereafter, blood was collected under anesthesia with Nembutal. After separation of the blood, the TG level in blood was determined.

Molecule | Ratio of Increase in Blood TG Levels (%) (dose 0.1 mg/mouse oral with 250 mg olive oil) | Ratio of Increase in Blood TG Levels (%) (dose 0.2 mg/mouse oral with 250 mg olive oil) | Ratio of Increase in Blood TG Levels (%) (dose 1.0 mg/mouse oral with 250 mg olive oil) | Ratio of Increase in Blood TG Levels (%) (dose 2.5 mg/mouse oral with 250 mg olive oil) | Ratio of Increase in Blood TG Levels (%) (dose 5.0 mg/mouse oral with 250 mg olive oil) | ID^50: Dose (mg/mouse) exhibiting 50% inhibition | Specific Activity | Ratio of Increase in Blood TG Levels (%) (dose 1x10^-3 mg/mouse oral with 250 mg olive oil) | Ratio of Increase in Blood TG Levels (%) (dose 1x10^-4 mg/mouse oral with 250 mg olive oil) | Ratio of Increase in Blood TG Levels (%) (dose 4x10^-4 mg/mouse oral with 250 mg olive oil) | Ratio of Increase in Blood TG Levels (%) (dose 4x10^-5 mg/mouse oral with 250 mg olive oil)
CC(C)C[C@H](NC(=O)[C@@H](NC(=O)[C@@H](N)C(C)C)[C@@H](C)O)C(=O)O [Val-Thr-Leu, H-Val-Thr-Leu-OH] (H-Val-Thr-Leu-OH) | 30 | 33 | 73 | 76 | 79 | 0.43 mg/mouse | 65 | – | – | – | –
LVVYPWT [SEQ ID NO: 1, Leu-Val-Val-Tyr-Pro-Trp-Thr] | – | – | – | – | – | 5.6x10^-4 mg/mouse | 50000 | 65 | 33 | 33 | 14

Source: patent EP0838474B1, “PEPTIDE THAT INHIBITS BLOOD TRIGLYCERIDE LEVEL RISE AND BLOOD TRIGLYCERIDE LEVEL RISE INHIBITOR CONTAINING SAID PEPTIDE AS ACTIVE INGREDIENT” (MG PHARMA INC., priority 1995, dated 1997)
